Measurements taken from a melting point compilation (Tetko et al.; mined from patent text by program, amines drawn as free bases though some values may be those of a salt).

| melting point [°C] | SMILES |
| --- | --- |
| 155 to 175 | CC(C)(C)C1Cc2cc(OCC(=O)O)c(Cl)c(Cl)c2C1=O (stereo unspecified) |
| 98 to 99 | CCC(CC)Cn1cc(C(=O)C(=O)O)c2cc(-c3ccc(OC(F)(F)F)cc3)ccc21 |
| 47 to 49 | CC(C)c1ccc(C#N)nc1 |
| 200 to 203 | O=C(Oc1ccccc1)Sc1nc2ccccc2n1C1CCN(C(=O)Oc2ccccc2)CC1 |
| 99 to 100 | Cn1c(=O)ccc2cc(CBr)ccc21 |
| 231 to 233 | CC(NC(=O)c1cc(Cl)ccc1NC(=O)c1cc(Br)nn1-c1ncccc1Cl)C1CC1 (stereo unspecified) |
| 123 to 126 | Cc1ccc(-c2cc(CCCO)nn2-c2ccc(S(N)(=O)=O)cc2)cc1 |
| 223 to 226 | O=C(O)C1=Cc2cc(Cl)cc(Cl)c2NC1C(F)(F)F (stereo unspecified) |
| 134 to 135 | COc1ccc(/C(=C\C=C\C(=O)Oc2ccc([N+](=O)[O-])cc2)c2ccccc2OC)cc1 |
| 72.3 to 72.8 | CCOC(=O)CC(c1cccnc1)N1C(=O)c2ccccc2C1=O (stereo unspecified) |
| 107 | Cc1ccc(S(=O)(=O)N2[C@H](CCCc3nnn(C)n3)CC[C@@H]2c2ccc(F)cc2)cc1 (racemic) |
| 142 to 143 | O=C(NNC(=O)c1occ(-c2ccccc2)c1-c1ccccc1)c1ccc(O)c(C(F)(F)F)c1 |
| 191 to 193 | O=C(Nc1ccc(C(=O)N2Cc3ccccc3Cc3ccccc32)cc1)c1ccccc1C(F)(F)F |
| 119 | CCCCOc1cc(/C=C(\OCC)C(=O)O)ccc1OCCc1ccc(OCC)c(F)c1 |
| 175 to 177 | Cc1cc(C)c2c(=O)n(CC(=O)N3CCNCC3)sc2n1 |
| 117 to 125 | CCOC(=O)c1cnc2n(c1=O)CCc1ccccc1-2 |
| 154 to 155 | COc1cccc([C@H]2O[C@H](CC(=O)Nc3cc(CCC(=O)O)ccc3C)C(=O)N(CC(C)(C)CO)c3ccc(Cl)cc32)c1OC |
| 151 to 152 | COC(=O)CCSc1nc(C(N)=O)cs1 |
| 54.5 to 56 | N#Cc1cccc(CN2CCc3ccccc32)c1 |
| 289 to 290 | COc1cc(NC(=O)C(C#N)=CNc2ccc(OC)c(I)c2)c(Cl)cc1Cl |
| 85 to 86 | CC(=O)Nc1ncc2ncn(COC(COC(C)C)COC(C)C)c2n1 |
| 247 to 248 | COc1cc2ccnc(N3CCN(C(=O)Nc4ccc([N+](=O)[O-])cc4)CC3)c2cc1OC |
| 115 to 116 | N#Cc1ccc(-c2ncc(C(F)(F)F)cc2Cl)cc1OCC(=O)C1CC1 |

| melting point [°C] | SMILES |
| --- | --- |
| 159 to 161 | CN(C)CCOc1cc2c(Nc3ccc(Oc4ccccc4)cc3)c(C#N)cnc2cn1 |
| 101 to 104 | O=C(O)Cc1ccc(O)c(Cl)c1 |
| 153 to 157 | O=C1CN(c2cc(Oc3ccccc3)ccc2O)S(=O)(=O)N1 |
| 219 to 221 | CS(=O)C1C(O)C(CO)OC1n1ccc(=O)[nH]c1=O (stereo unspecified) |
| 244 to 245 | CC(=O)NC[C@H]1CC(c2ccc(-c3ccncc3)cc2)=NO1 |
| 98 | CCOC(=O)C1=C(C)Nc2nc(N)nc(N)c2C1c1ccc(OC)cc1 (stereo unspecified) |
| 212 to 214 | COc1ccc(C(=N)c2ccc(Cl)cc2)c(O)c1 |
| 135 to 140 | O=C(O)CCC(CC=Cc1ccccc1)(C(=O)C=Cc1ccc(Cl)cc1)c1ccccc1 (stereo unspecified) |
| 141 | C#CCNC(=O)N1CC(c2ccc(C(C)(C)C)cc2)C1 |
| 113 to 114 | COc1ccc2c(CO)c(F)ccc2c1C(F)(F)F |
| 219 to 221 | O=C(Nc1ccc(C(=O)N2Cc3ccc(C(=O)C(Cl)(Cl)Cl)n3Cc3ccccc32)cc1)c1ccccc1C(F)(F)F |
| 153 to 154 | CSc1nc(F)cc(NN)n1 |
| 237 | CC(CO)(CO)NS(=O)(=O)c1cc(NC(=O)c2cnn3c(C(F)F)cc(-c4ccc(C(F)(F)F)cc4)nc23)c(Cl)s1 |
| 293 to 295 | CNC(=O)c1ccccc1Nc1nc(Nc2ccc3c(c2)OCCNC3=O)ncc1Cl |
| 190 to 191 | CCc1cc(Oc2ccc(S(C)(=O)=O)nc2)cc2cc(C3=NCC(CC(N)=O)S3)[nH]c12 (stereo unspecified) |
| 208 to 209 | CN=c1nc(N)nc2sc3cc(OC)ccc3n12 |
| > 300 | COc1nc(NC#N)nc(OC)n1 |
| 68 to 69 | CCOC(=O)c1ccc(N2CSCC2=O)cc1 |
| 289 to 291 | O=C(O)c1ccc(COc2ccc3cc(-c4ccc(-c5ccccc5)[nH]4)ccc3c2)c(C(=O)O)c1 |
| 172 to 175 | COCCc1nc2c(N)nc3ccccc3c2n1CCCCCS(=O)(=O)c1ccccc1 |
| 100 to 101 | COc1ccc(-c2nc(-c3ccccc3)c(N(C)c3ccccc3)s2)cc1 |
| 144 to 147 | Cc1ccnc(NC(c2ccc(C(F)(F)F)cc2)c2ccc3cccnc3c2O)n1 (stereo unspecified) |
| 103 to 106 | COc1ccc(S(=O)(=O)Nc2ccc(Cl)c(OCCN(C)C)c2)cc1OC |

| melting point [°C] | SMILES |
| --- | --- |
| 152 | Nc1cc2c(cc1[N+](=O)[O-])OCC2 |
| 95 to 96 | COc1c(CC#N)c2c(c3c1OC(C)(C)C3)C(c1ccccc1)=NC(C)(C)C2 |
| 67 to 68 | CC1(C)CC(=O)CCc2ccc(Br)cc21 |
| 128 to 135 | N[C@H]1CC[C@H](CN2CCC(=C3c4ccccc4Sc4ccc(Cl)cc43)CC2)CC1 |
| 104 to 106 | O=C1c2ccccc2C(=O)N1CCCN1CCC(C(c2ccccc2)c2ccccc2)CC1 |
| 186 to 187 | CNC1(c2ccccc2Cl)C(=O)Nc2ccc(C)cc21 (stereo unspecified) |
| 219 to 220 | COC(=O)c1cccc(Cn2c(C(=O)Nc3nc(-c4cc(OC)c(C)cc4OC)c(CCC4CCCCC4)s3)cc3cc(C)cc(C)c32)c1 |
| 122 | O=C(Nc1cccnc1Cl)c1ccccc1F |
| 199 to 200 | C[C@H]1N(C(=O)c2ccc(C(F)(F)F)cc2)CC(O)O[C@@]1(Cn1cncn1)c1ccc(Cl)cc1Cl (relative stereo) |
| 83 to 83.5 | CCOC(=O)CC(=O)CC(O)C=Cc1c(C)c(OCc2ccccc2)c(C)c2c1OC(C)(C)CC2 (stereo unspecified) |
| 83 to 85 | CCCCCCCCC(SCCCCCC)C(=O)NC1(OC)C=C(C)C=CN1 (stereo unspecified) |
| 201 to 210 | CC(=O)c1ccc(C(=O)N2Cc3ccnn3Cc3ccccc32)cc1 |
| 194 to 195 | Cc1noc(NC(=O)N2CCN(c3nccc(-c4ccccc4F)n3)CC2)c1C |
| 88 to 91 | BrCC=Cc1ccc(-c2cnc(CSCCOc3ccccc3)o2)cc1 |
| 175 | CCCOc1ncc(NCC(=O)OC)cc1-c1nc2c(CCC)nn(C)c2c(=O)[nH]1 |
| 142 to 150 | COC(=O)c1cc(C(=O)OC)cc(S(=O)(=O)Nc2ccc(F)cc2C(F)(F)F)c1 |
| 196 | COC(=O)c1ccccc1S(=O)(=O)NC(=O)Nc1nc(N(C)C)c2nc(C)c(C)nc2n1 |
| 96 to 98 | CC1(CNC=O)CC(=O)c2ccccc2O1 (stereo unspecified) |
| 158 to 161 | Cc1cc(-c2cccc(C#N)c2)c(C(=O)NCCN2CCOCC2)c(C)n1 |
| 240 to 242 | CC(=NOCCOc1ccc(CC2SC(=O)NC2=O)cc1)c1ccc(O)nc1 (stereo unspecified) |
| 260 to 262 | CC(CO)COc1ccc(C#Cc2ccc(C(=O)O)cc2)cc1C12CC3CC(CC(C3)C1)C2 (stereo unspecified) |
| 178 | Cc1coc(NCCN2CCC(Nc3nc4ccccc4n3Cc3ccc(F)cc3)CC2)n1 |
| 222 to 223 | Nc1cc(Cl)nc(S(=O)Cc2ccc3ccccc3c2)n1 (stereo unspecified) |

| melting point [°C] | SMILES |
| --- | --- |
| 147 to 148 | O=C1C(=O)N(Cc2ccccc2F)c2ccc(S(=O)(=O)N3CC[C@H]3COc3ccccc3)cc21 |
| 101 | CC(c1ccc(OCCC2OCCCO2)cc1)(c1ccc(OCCC2OCCCO2)cc1)c1ccc(OCCC2OCCCO2)cc1 |
| 227 | CCS(=O)(=O)c1cc2c(cc1OC)CCn1c3c(c(Br)c1-2)CCCCN(C(C)(C)C)C3=O |
| 172 | N#Cc1cc(N)c(Cl)c(N)c1 |
| 130 to 131 | CCCc1ccc(S(=O)(=O)Nc2ccc3oncc3c2)cc1 |
| 265 to 266 | COc1ccc2c(=O)c(C(N)=O)c(N)oc2c1 |
| 182 to 190 | O=Cc1ccc(C(=O)O)c(SCc2ccccc2)c1 |
| 88 to 89 | CCNC(=O)n1nc(Oc2c(Cl)cc(C(F)(F)F)cc2Cl)cc1-c1ccc(Cl)cc1 |
| 134 | Cc1ccc(CCCO)c(NCc2ccc3nc(NCCCN4CCOCC4)n(Cc4cc(Br)ccc4O)c3c2)c1 |
| 93 to 93.5 | CCCCCCCCC(=O)NCc1ccc(Oc2ccccc2[N+](=O)[O-])c(OC)c1 |
| 239 to 240 | O=CNc1ccc(C2=NNC(=O)C3CC23)cc1 (stereo unspecified) |
| 199 to 200 | COC(=O)c1cc(F)c(N2CCC(NC(C)=O)C2)nc1Nc1ccc(F)cc1F (stereo unspecified) |
| 280 to 282 | Cc1c(-c2ccc3c(c2)NC(=O)CO3)nc2ccccn12 |
| 248 to 250 | CC(=O)c1cc2c(s1)SCCc1cc(=O)n(-c3ccc(Cl)cc3)nc1-2 |
| 164 | CCOC(=O)c1c(N2CCN(C(=O)c3cccs3)CC2)c2cccnc2n(C)c1=O |
| 136 to 138 | C=CC(NC(C)=O)C(=O)NCc1ccccc1 (stereo unspecified) |
| 204 to 206 | CCCn1nc2c(N)nc3ccccc3c2c1CCCCN1C(=O)c2ccccc2C1=O |
| 247 to 250 | CCn1cc(C(=O)O)c(=O)c2cc(F)c(N3CCC(CNC)C3)cc21 (stereo unspecified) |
| 253 to 254 | CCOC(=O)c1c(C)nc2[nH]c3ccccc3c2c1N |
| 168 to 179 | COc1ccc(CCN2CCC(C(O)(c3cc4ccccc4s3)c3cc4ccccc4s3)CC2)cc1 |
| 296 to 298 | CC(=C1SC(=O)NC1=O)c1ccc(OCCOc2c(-c3ccc(F)c(F)c3)n(C)c3cc(Cl)ccc3c2=O)cc1 |
| 73 | OCC(CO)(COCc1ccccc1)COCc1ccccc1 |
| 118 to 120 | CCOC(=O)c1c(Oc2ccc(Cl)cc2N)c2ccccc2n1C |

| SMILES | melting point [°C] |
| --- | --- |
| CNC1CCc2[nH]c3c(F)cc(F)cc3c2C1 (stereo unspecified) | 135 to 138 |
| O=C(CCC1CCCCC1)NC1N=C(c2ccccc2)c2ccccc2N2CCN=C12 (stereo unspecified) | 202 to 208 |
| O=C(O)CSC(c1ccccc1)c1ccccc1 | 126 to 129 |
| CN1C(=O)C(NS(=O)(=O)CC23CCC(CC2=O)C3(C)C)N=C(c2ccccc2)c2ccccc21 (stereo unspecified) | 204 to 206 |
